Entries after “also recorded” stand apart in the source; their conditions may differ. Blank lines part the entries; values can stand above or below the compound they belong to.
Assays:
[1] = tested on: HCV subgenomic replicon (genotype 1a) in Huh-7 cells; assay: HCV replicon assay (luciferase reporter); assay type: cell-based; settings: for EC50: Hepatitis C virus, subgenomic genotype 1a replicon, Huh-7 luc-ubi-neo, 48 h, diastereomer mixtures
Experimental: Anti-HCV activity and cytotoxicity of compounds disclosed herein were assayed following patent method (WO 2007/027248).
(§1) The anti-HCV activity and toxicity of the exemplary compounds can be tested in two biological assays—a cell-based HCV replicon assay and cytotoxicity assay (WO 2007/027248).
A human hepatoma cell line (Huh-7) containing replicating HCV subgenomic replicon with a luciferase reporter gene (luc-ubi-neo) was used to evaluate anti-HCV activity of the compounds. In this assay, level of luciferase signal correlates with the viral RNA replication directly. The HCV replicon-reporter cell line (NK/luc-ubi-neo) was cultured in DMEM medium supplemented with 10% fetal bovine serum and 0.5 mg/ml Geneticin (G418). Cells were maintained in a subconfluent state to ensure high levels of HCV replicon RNA synthesis.
To evaluate the antiviral activity of compounds, serial dilutions were prepared with concentrations ranging from 0.14 to 300 μM. Diluted compounds were transferred to a 96-well plate followed by the addition of replicon cells (6000 cells per well). Cells were incubated with the compounds for 48 h after which luciferase activity was measured. Reduction of luciferase signal reflected the decrease of HCV replicon RNA in the treated cells and used to determine the EC50 value (concentration which yielded a 50% reduction in luciferase activity).
(§2) The biological activities using subgenomic genotype 1a replicon and cytotoxicity of the selected compounds are summarized in Table 2.

[2] = Cytotoxicity assay (LTR-luc luciferase reporter); assay type: cell-based; settings: human; Huh-7 LTR-luc cells
From the text: as §1
A Huh-7 cell line carrying a luciferase reporter gene (driven by a HIV LTR promoter) stably integrated into the chromosome was used to analyze the cytotoxic effect of the selected compounds. This cell line (LTR-luc) was maintained in DMEM medium with 10% FBS. Design of the cytotoxicity assay was similar to that of the HCV replicon assay. Reduction of luciferase activity in the treated cells correlated with the cytotoxic effect of the test compound and was used to calculate the CC50 value (concentration that inhibited cell growth by 50%).
as §2

[3] = Rat plasma and liver PK after iv administration; assay type: in vivo, SD rats
Experimental: Pharmacokinetic (PK) study of prodrug FDURP (DGX-102) and parent drug (FDUR) in rats was completed according to following procedure.
SD rats (250-300 g, male, N=15) were used for each compound, purchased from SLAC Laboratory Animal Co. LTD Qualification No.: SCXK (SH) 2007-0005, 13264. Compounds FDUR and FDURP were each dosed via tail vein injection. The animal was restrained manually at designated time points. Approximately 500 μL of blood/time point was collected into K2EDTA tube via cardiac puncture for terminal bleeding under anesthesia with Isoflurane. FDUR and FDURP blood samples were put on ice after collection and then centrifuged to obtain plasma sample (2000 g, 5 min, 4° C.) within 15 minutes of sampling. The blood samples were then centrifuged to obtain plasma sample (2000 g, 5 min, 4° C.). All the plasma samples were immediately quenched for protein precipitation. Liver samples of each compound were removed at designated time points by first sacrificing the animal by CO2 inhalation, then perfusing the liver with ice cold saline and removing the left middle liver lobe, which was then snap frozen in dry ice. Liver samples were stored at approximately −80° C. until analysis. The liver homogenate was then processed for further analysis by LC/MS-MS. Plasma and liver samples were stored at approximately −80° C. until analysis.
Concentrations of prodrugs, parent drug and possible metabolites in both plasma and liver including FDURMP, FDUR, FDUR-MP and 5FU were determined by LC/MS-MS.

Structure (SMILES): CC1(F)C(O)C(CO)OC1n1ccc(=O)[nH]c1=O (centres unmarked) [DGX-103]
anti-HCV activity (in words) [1]: biologically inactive | EC50 [1]: > 100 µM | CC50 [2]: > 100 µM

Structure (SMILES): COc1ccc(COP(=O)(NCc2ccccc2)OCC2OC(n3ccc(=O)[nH]c3=O)C(C)(F)C2O)cc1F (centres unmarked) [DGX-104]
anti-HCV activity (in words) [1]: biologically potent; also recorded: potent anti-HCV activity | EC50 [1]: 4.1 µM | CC50 [2]: > 100 µM

Structure (SMILES): Cc1ccccc1COP(=O)(NCc1ccccc1)OCC1OC(n2ccc(=O)[nH]c2=O)C(C)(F)C1O (centres unmarked) [DGX-105]
anti-HCV activity (in words) [1]: biologically potent; also recorded: potent anti-HCV activity | EC50 [1]: 1.9 µM | CC50 [2]: > 100 µM

Structure (SMILES): CC1(F)C(O)C(COP(=O)(NCc2ccccc2)OCc2ccccc2)OC1n1ccc(=O)[nH]c1=O (centres unmarked) [DGX-106]
anti-HCV activity (in words) [1]: did not show any anti-HCV activity | EC50 [1]: > 100 µM | CC50 [2]: > 100 µM

Structure (SMILES): COc1nc(N)nc2c1ncn2C1OC(CO)C(O)C1(C)O (centres unmarked) [DGX-110]
anti-HCV activity (in words) [1]: biologically active | EC50 [1]: 0.9 µM | CC50 [2]: > 100 µM

Structure (SMILES): COc1nc(N)nc2c1ncn2C1OC(COP(=O)(NCc2ccccc2)OCc2ccccc2C)C(O)C1(C)O (centres unmarked) [DGX-111]
anti-HCV activity (in words) [1]: biologically much more potent | EC50 [1]: 0.3 µM | CC50 [2]: 69 µM

Active metabolite FDUR-MP in the liver after administration ([3]; iv): not | liver Cmax ([3]; monitored compound 5FU, iv): BQL | liver Cmax ([3]; monitored compound FDUR, iv): BQL | liver Cmax ([3]; monitored compound FDUR-MP, iv): BQL | Drug FDUR Concentration, Liver ([3]; sampling 1, iv 0.015 mmol/kg): BQL | Drug FDUR Concentration, Liver ([3]; sampling 2, iv 0.015 mmol/kg): BQL | Drug FDUR Concentration, Plasma ([3]; sampling 2, iv 0.015 mmol/kg): BQL | Drug FDUR Concentration, Liver ([3]; sampling 4, iv 0.015 mmol/kg): BQL | Drug FDUR Concentration, Plasma ([3]; sampling 4, iv 0.015 mmol/kg): BQL | Drug FDUR Concentration, Liver ([3]; sampling 8, iv 0.015 mmol/kg): BQL | Drug FDUR Concentration, Plasma ([3]; sampling 8, iv 0.015 mmol/kg): BQL | Drug FDUR Concentration, Liver ([3]; sampling 24, iv 0.015 mmol/kg): BQL | Drug FDUR Concentration, Plasma ([3]; sampling 24, iv 0.015 mmol/kg): BQL
Structure (SMILES): O=c1[nH]c(=O)n([C@H]2C[C@H](O)[C@@H](CO)O2)cc1F [FDUR, 5-fluoro-2′-deoxyuridine, reference compound]

Active metabolite FDUR-MP in the liver after administration ([3]; iv): detected in the liver | Concentrations of related active drugs (FDUR, FDUR-MP, 5FU) compared with administration of FDUR ([3]; iv): significantly increased | Exposure in plasma and liver compared with parent drug FDUR ([3]; iv): significantly greater | Tmax ([3]; male, Sprague-Dawley, liver, 0.015 mmol/kg, monitored compound FDURP, iv): 60 min | AUC(0-inf) ([3]; male, Sprague-Dawley, plasma, 0.015 mmol/kg, monitored compound FDURP, iv): 10400 ng·h/mL | half-life ([3]; male, Sprague-Dawley, plasma, 0.015 mmol/kg, monitored compound FDURP, iv, printed in Tmax column, read-out: plasma T½ (converted)): 27 min | liver AUC(inf) ([3]; monitored compound FDURP, iv): 1750 ng·h/mL | liver Cmax ([3]; monitored compound FDURP, iv): 1573 ng/mL | Drug FDUR Concentration, Liver ([3]; sampling 1, iv 0.015 mmol/kg): BQL | Drug FDUR Concentration, Liver ([3]; sampling 2, iv 0.015 mmol/kg): BQL | Drug FDUR Concentration, Plasma ([3]; sampling 4, iv 0.015 mmol/kg): BQL | Drug FDUR Concentration, Plasma ([3]; sampling 8, iv 0.015 mmol/kg): BQL | Drug FDUR Concentration, Plasma ([3]; sampling 24, iv 0.015 mmol/kg): BQL
Structure (SMILES): Cc1ccccc1COP(=O)(NCc1ccccc1)OCC1OC(n2cc(F)c(=O)[nH]c2=O)CC1O (centres unmarked) [FDURP]

Reference: US9095599B2, “O-(substituted benzyl) phosphoramidate compounds and therapeutic use” (Nanjing Molecular Research, Inc., priority 2011, dated 2015)
